From PubChem BioAssay (NCI)
“And” between values parts separate entries of the source, which are not always exact repeats. Equal values may be shown once.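 Five compound concentrations were applied to cells in 96-well plates for 48 hours; endpoints were derived by simple linear interpolation of the resulting dose-response curve. GI50: concentration for 50% inhibition of growth. At the TGI there is no net growth.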

What was measured:
Experiment in all cases: NCI-60 cell line screen, 48 h
HCC-2998 colon = tested on: HCC-2998 colon
SF-268 CNS = tested on: SF-268 CNS
HT29 colon = tested on: HT29 colon
MALME-3M melanoma = tested on: MALME-3M melanoma
M14 melanoma = tested on: M14 melanoma
OVCAR-8 ovarian = tested on: OVCAR-8 ovarian
SK-MEL-28 melanoma = tested on: SK-MEL-28 melanoma
SF-539 CNS = tested on: SF-539 CNS
HOP-62 NSCLC = tested on: HOP-62 NSCLC
UACC-257 melanoma = tested on: UACC-257 melanoma

Row | Structure (SMILES) | TGI (HCC-2998 colon) | TGI (SF-268 CNS) [µM] | TGI (HT29 colon) | TGI (MALME-3M melanoma) | TGI (M14 melanoma) | TGI (OVCAR-8 ovarian) | TGI (SK-MEL-28 melanoma) | TGI (SF-539 CNS) [µM] | TGI (HOP-62 NSCLC) | TGI (UACC-257 melanoma) | GI50 (HCC-2998 colon) | GI50 (SF-268 CNS) [µM] | GI50 (MALME-3M melanoma) | GI50 (M14 melanoma) | GI50 (SK-MEL-28 melanoma) | GI50 (HT29 colon) | GI50 (OVCAR-8 ovarian) | GI50 (HOP-62 NSCLC) | GI50 (UACC-257 melanoma) | GI50 (SF-539 CNS) [µM]
1 | O=C(Cc1nc2ccccc2o1)C(=O)Nc1ccc(Cl)cc1Cl | > 100 µM | > 100 | > 100 µM | > 100 µM | > 100 µM | > 100 µM | > 100 µM | > 100 | > 100 µM | > 100 µM |  |  |  |  |  |  |  |  |  | 
2 | COC(=O)C1=CCC2c3[nH]c4ccccc4c3CCN2C1 (stereo unspecified) | > 354 µM | > 354 | > 354 µM | > 354 µM |  | > 354 µM | > 354 µM | > 354 | > 354 µM | > 354 µM |  |  |  |  |  |  |  |  |  | 
3 | Cc1cc(C)c(/C=N/NS(=O)(=O)c2ccccc2)c(C)c1 | > 100 µM | > 100 | > 100 µM | > 100 µM | > 100 µM | > 100 µM | > 100 µM | > 100 | > 100 µM | > 100 µM |  |  |  |  |  |  |  |  |  | 
4 | O=C(CCCn1ccnc1[N+](=O)[O-])NCCn1cnc([N+](=O)[O-])n1 |  | > 100 | > 100 µM | > 100 µM | > 100 µM | > 100 µM | > 100 µM | > 100 | > 100 µM | > 100 µM |  |  |  |  |  |  |  |  |  | 
5 | CCCCCCCCCCCCCCCCCC[S+](C)CC (stereo unspecified) | 2.68 µM | 2.88 |  | 3.45 µM | 2.75 µM |  | 3.71 µM |  |  |  | 1.23 µM | 1.18 | 1.38 µM | 1.33 µM | 1.67 µM |  |  |  |  | 
6 | COc1cc2c(cc1[N+](=O)[O-])C(=O)C(Br)(Br)CCC2 | 32.5 µM | 15.6 | 11.2 µM | 4.99 µM | 5.34 µM | 5.54 µM |  | 3.87 | 14.4 µM | 26.7 µM |  |  |  |  |  |  |  |  |  | 
7 | COc1ccc(/C=C/C(=O)/C=C(O)/C=C/c2ccc(OC)c(OC)c2)cc1OC | 34.9 µM | > 100 | 22.3 µM | > 100 µM | 27.7 µM | 95.9 µM | 44 µM |  | 49.2 µM | 64.8 µM | 14.5 µM | 4.77 | 3.82 µM | 5.88 µM | 18.4 µM | 3.64 µM | 35.5 µM | 9.23 µM | 33.9 µM | 
8 | COC(=O)C1=CC(=O)[C@@H]2CCCC[C@H]12 | > 100 µM | > 100 |  | > 100 µM | > 100 µM | > 100 µM | > 100 µM | > 100 | > 100 µM | > 100 µM |  |  |  |  |  |  |  |  |  | 
9 | CC#CC#C/C(=C/C=CC(=O)OC)SC | > 100 µM | > 100 | > 100 µM | > 100 µM | > 100 µM | > 100 µM | > 100 µM | > 100 |  | > 100 µM |  |  |  |  |  |  |  |  |  | 
10 | CCN(CC)C(=O)CC12CCCCC1=Nc1ccccc12 (stereo unspecified) | > 100 µM |  | > 100 µM | > 100 µM | > 100 µM | > 100 µM | > 100 µM | > 100 | > 100 µM | > 100 µM |  |  |  |  |  |  |  |  |  | 
11 | COc1cc2c(cc1-c1coc3cc(O)ccc3c1=O)OCO2 | > 100 µM | 43.6 | > 100 µM |  | > 100 µM | 40.1 µM | > 100 µM | 48.6 | 33.3 µM | 85.1 µM |  |  |  |  |  |  |  |  |  | 
12 | COc1ccc2nc3ccccc3c(NCCN(CCCl)CCCl)c2c1 | 2.73 µM | 5.74 | 61.1 µM | 3.01 µM | 2.28 µM | 2.9 µM | 5.28 µM |  | 2.97 µM | 3.99 µM |  |  |  |  |  |  |  |  |  | 
13 | CCN(/N=C1\CC2C=CCN(C2)C(=O)Cc2c1[nH]c1ccccc21)S(=O)(=O)c1ccc(C)cc1 (stereo unspecified) | > 100 µM |  |  | > 100 µM |  | > 100 µM |  | > 100 |  | > 100 µM |  |  |  |  |  |  |  |  |  | 
14 | O=C(CC1(O)C(=O)Nc2ccccc21)c1ccccc1O (stereo unspecified) |  | > 100 | > 100 µM | > 100 µM | > 100 µM | > 100 µM | > 100 µM | > 100 | > 100 µM | > 100 µM |  |  |  |  |  |  |  |  |  | 
15 | COc1cc(N2CCC(N)CC2)ccc1Nc1ncc(Cl)c(-c2c[nH]c3ccccc23)n1 | 2.23 µM | 3.35 | 1.43 µM |  | 1.73 µM | 2.44 µM | 2.64 µM | 1.7 | 1.99 µM | 2.34 µM | 0.649 µM | 0.846 |  | 0.373 µM | 1.31 µM | 0.0343 µM | 1.13 µM | 0.389 µM | 1.02 µM | 0.437
16 | CCn1ncc(N=O)c1N | > 100 µM | > 100 | > 100 µM |  | > 100 µM | > 100 µM | > 100 µM | > 100 | > 100 µM | > 100 µM |  |  |  |  |  |  |  |  |  | 
17 | O=C1c2ccc3c4c(ccc(c24)C(=O)N1CCNCc1ccccc1)C(=O)N(CCNCc1ccccc1)C3=O | 3.15 µM | 14.7 |  |  | 3.27 µM | 4.26 µM | 7.13 µM | 3.64 | 4.57 µM | 3.45 µM | 1.74 µM | 2.76 |  | 1.85 µM | 2.59 µM |  | 1.2 µM | 1.91 µM | 1.69 µM | 1.88
18 | CN1CCN(CCC=C2c3ccccc3Sc3ccc(S(=O)(=O)N(C)C)cc32)CC1 | 3.21 µM and 6.84 µM |  | 3.26 µM and 2.91 µM | 3.5 µM and 9.72 µM | 3.63 µM and 4.57 µM | 24.6 µM and 36.4 µM | 3.22 µM and 3.35 µM |  | 23.3 µM and 33 µM | 3.73 µM and 4.03 µM | 1.55 µM and 2.57 µM |  | 1.73 µM and 2.54 µM | 1.97 µM and 2.1 µM | 1.8 µM and 1.77 µM | 1.42 µM and 0.872 µM | 5.85 µM and 15.2 µM | 5.73 µM and 14.6 µM | 2.02 µM and 1.8 µM | 
19 | Nc1cc(N)c2nc(NCCc3ccc(Cl)c(Cl)c3)cnc2c1 |  | 17.6 | 18.8 µM | 11.1 µM | 38.5 µM | 25.3 µM | 26.2 µM | 29.8 | 38 µM |  |  | 4.7 | 3.44 µM | 18 µM | 13.4 µM | 6.47 µM | 12.7 µM | 19.8 µM |  | 15.4
20 | CC(=O)Nc1cc2c3c(cccc3c1)-c1ccccc1-2 | 52.5 µM | > 100 | > 100 µM |  | > 100 µM | > 100 µM | > 100 µM | > 100 | 69.5 µM | > 100 µM | 18.8 µM | 8.94 |  | > 100 µM | > 100 µM | > 100 µM | 45.9 µM | 22.7 µM | 90.3 µM | > 100
21 | COC1C(=O)CCC2(CO2)C1(O)C1(C)OC1CC=C(C)C (stereo unspecified) | 46.5 µM | > 100 | > 100 µM |  | 53.2 µM | > 100 µM | > 100 µM |  | > 100 µM | > 100 µM |  |  |  |  |  |  |  |  |  | 
22 | [CH3][Hg]/[N]=C(/N)NC#N |  | 33.3 | 50.8 µM | 4.94 µM | 22.9 µM | 16.1 µM | 30.1 µM | 32.4 | 36.6 µM | 17.4 µM |  | 16.3 | 2.34 µM | 10.6 µM | 11.9 µM | 19.9 µM | 3.63 µM | 19.4 µM | 5.1 µM | 17.7
23 | Cc1[nH]nc(C(=O)N/N=C/c2ccccc2Cl)c1N=NN(C)C | > 100 µM | > 100 | > 100 µM | > 100 µM | > 100 µM | > 100 µM | > 100 µM | > 29.9 |  | > 100 µM |  |  |  |  |  |  |  |  |  | 
24 | COc1ccc([C@@H]2OC(=O)C3C2C(=O)O[C@H]3c2ccc(OC)cc2)cc1 (stereo partly specified) | > 100 µM |  | > 100 µM |  |  | > 100 µM | > 100 µM | > 100 | > 100 µM | > 100 µM |  |  |  |  |  |  |  |  |  | 
25 | Nc1c(C(=O)Nc2cccc(C(F)(F)F)c2)sc2nc3c(cc12)CCCCCC3 | > 100 µM | 6.77 | 32.4 µM | 11.3 µM | 18 µM | 6.82 µM | 15.9 µM | 3.37 |  | 22.7 µM | 12.3 µM | 2.36 | 3.54 µM | 3.4 µM | 3.36 µM | 3.24 µM | 2.24 µM |  | 4.37 µM | 1.71
26 | COc1cc(C2CC(c3cccc(Nc4ccnc5cc(Cl)ccc45)c3)=NN2c2ccccc2)cc(OC)c1OC (stereo unspecified) | 33.8 µM | > 100 |  | > 100 µM | > 100 µM | > 100 µM | > 100 µM | 18.1 | > 100 µM | > 100 µM | 5.32 µM | 75.5 | > 100 µM | 2.6 µM | 10.4 µM |  | 7.68 µM | 3.81 µM | 10.5 µM | 3.08
27 | CCOC(=O)C(=O)C(C#N)c1ccc(Cl)cc1 (stereo unspecified) |  | > 100 | > 100 µM | > 100 µM | > 100 µM | > 100 µM | > 100 µM | > 100 | > 100 µM | > 100 µM |  |  |  |  |  |  |  |  |  | 
28 | CC(C)C1=CC2=C(C(=O)C1=O)C13CCCC(C)(C)C1CC2OC3=O (stereo unspecified) | 46.3 µM | 55.8 | 26.3 µM |  | 70.6 µM | 35.4 µM | 31.7 µM | 46.3 |  | 71 µM |  |  |  |  |  |  |  |  |  | 
29 | O=C(O)c1ccc(/C=N/N=C2c3ccccc3-c3ccccc32)cc1 |  | 89.3 | > 100 µM | > 100 µM | > 100 µM | > 100 µM | > 100 µM | 92.3 | > 100 µM | > 100 µM |  |  |  |  |  |  |  |  |  | 
